Reference: patent US20050288347A1, “Certain triazole-based compounds, compositions, and uses thereof” (priority 2004, published 2005)
“Also recorded” adds a separate entry of the source.

target: protein kinase; assay: HTS ATP-utilizing enzyme assay, off-chip mobility-shift format (Caliper HTS 250); format: biochemical, human; conditions: kinase(s) for which the compound exhibits protein kinase inhibitory activity; test compound 10 μM; active = greater than three-sigma from the mean activity of inactive compounds
Description: The following procedures describe the reagent and plate preparation for a HTS of an ATP-utilizing enzyme, such as a protein kinase, run in an off-chip mobility-shift assay format. The following provides an HTS protocol for running a protein kinase HTS screen on a Caliper HTS 250 microfluidics system. The following parameters are dependent on the protein kinase used and can be determined by one skilled in the art as part of a typical assay development process. For example, the peptide substrate used can be identified from the current literature, by screening a peptide library of potential protein kinase substrates, or by other applicable means accepted in the field.
The following table provides typical screen assay parameters appropriate for a Caliper HTS 250 microfluidics system.
The reagents and buffers listed in the following table are generally applicable for developing and running an HTS screen on a human protein kinase using the Caliper HTS 250 system.
The following reagents were prepared using the previously described buffers.
A 2× Master Buffer solution was prepared by combining 200 mL of 1 M HEPES, pH 7.5, 2 mL of 10% Triton X-100, 20 mL of 10% BSA, and 778 mL of H2O.
Assays to determine the kinase inhibitory activity of chemical entities of the present disclosure were performed using a Caliper HTS 250 microfluidics device, Greiner U-bottom assay plates, a Multidrop for transfer of reagents, and Biomek FX (AMNCBM03) software. Initially, 2.4 μL of a 1 mM solution of a test compound in 100% DMSO was added to a well of the Greiner U-bottom plate. A single Greiner U-bottom plate having 24×16 wells could include multiple test compounds. […] Using the Biomek FX, 10 μL of 0.5 M EDTA was added by the span-8 to wells, indicated as 100% Control and 2.4 μL of 100% DMSO was added by the span-8 to wells, indicated as 0% Control. […] The total reaction volume in each well was 25 μL, and the concentration of the test compound was 10 μM. The assay plate was incubated for 2.5 hrs at 20° C. to 22° C. […] The inhibition of the ATP-utilizing enzyme, such as a particular protein kinase, was determined by measuring the ratio of the peptide substrate to phosphorylated product for each well of the assay plate using the Caliper HTS 250 system.
The use of three-sigma statistical limits represents a conservative method for declaring potential hits among targets. The three-sigma activity, as well as the mean population activity, can be different for each target enzyme.

Kinase | SMILES
AKT1 | Cc1cccc(OCc2nnc(SCC(=O)N3CCCc4ccccc43)n2Cc2ccco2)c1C
FYN | Cc1cc(NC(=O)CSc2nnc(-c3cccnc3)n2-c2ccc(F)cc2)no1
DAPK1 | COc1ccc(-n2c(SCC(=O)N3CCC(C)CC3)nnc2-c2ccccc2)cc1
GSK3-β and GSK3-α and MSK2 | O=C(CSc1nnc(-c2ccc(O)cc2)n1Cc1ccco1)N1c2ccccc2Sc2ccccc21
SRC and GSK3-α and AKT3 | O=C(CSc1nnc(-c2ccncc2)n1Cc1ccco1)Nc1ccccc1
SYK | O=C(CSc1nnc(-c2ccccc2O)n1Cc1ccccc1)Nc1cccc(I)c1
FYN | CNC(=O)CSc1nnc(COc2ccccc2)n1Cc1ccccc1
PAK2 | CCn1c(SCC(=O)N2CCOCC2)nnc1-c1ccc(S(=O)(=O)N2CCCCC2)cc1
FYN and PDGFRR-α and FLT-3 | CCn1c(CNc2ccc(OC)cc2)nnc1SCC(=O)Nc1ccccc1C(F)(F)F
PAK2 | Cc1csc(NC(=O)CSc2nnc(-c3cccnc3)n2C)n1
AURORA-A | COc1ccccc1-n1c(SCC(N)=O)nnc1-c1ccccc1O
GSK3-α; also recorded: GSK3-β | CCN(CC)S(=O)(=O)c1ccc(-c2nnc(SCC(=O)Nc3nccs3)n2CC)cc1
SYK | COc1ccc(C)cc1NC(=O)CSc1nnc(-c2ccc(Br)cc2)n1-c1ccccc1
GSK3-β and SRC and GSK3-α | Cn1c(SCC(=O)Nc2cccc(C(F)(F)F)c2)nnc1-c1ccc(O)cc1
GSK3-β; also recorded: GSK3-α | Cc1ccc(NC(=O)CSc2nnc(-c3ccc(O)cc3)n2C)cc1
CDK5 | COCCCn1c(SCC(=O)N2CCCCC2)nnc1-c1ccc(C(C)(C)C)cc1
DAPK1 | Cn1c(SCC(=O)N(CC(=O)NC2CCCCC2)C2CCCC2)nnc1-c1ccc(C(C)(C)C)cc1
CHEK2 | COc1ccc(-n2c(CNc3ccccc3Cl)nnc2SCC(=O)Nc2ccc([N+](=O)[O-])cc2)cc1
CHEK2 | Cc1ccc(NCc2nnc(SCC(=O)Nc3cccc(O)c3)n2Cc2ccco2)c(C)c1
PAK2 | CCn1c(CNc2cccc(Cl)c2)nnc1SCC(=O)NCc1ccco1
CDK2-cyclinA and CDK1 and AURORA-A | NC(=O)CSc1nnc(CNc2cccc(Cl)c2)n1CCc1ccccc1
LCK | CCc1cccc(C)c1NC(=O)CSc1nnc(CNc2ccc(Cl)cc2)n1CC
CDK2-cyclinE | Cc1cccc(C)c1NC(=O)C(C)Sc1nnc(CNc2ccc(Cl)cc2)n1-c1ccccc1 (stereo not drawn)

Kinase | SMILES
AKT1 | Cc1ccc(-n2c(CNc3ccc(F)cc3)nnc2SCC(=O)Nc2ccccc2C(F)(F)F)cc1
FLT-3 | NC(=O)CSc1nnc(CNc2ccc(F)cc2)n1-c1ccccc1
PDGFRR-α and PKA | COc1ccc(OCc2nnc(SCC(=O)Nc3ccccc3OC)n2C)cc1
INSR and CHEK1 and FYN | COc1ccc(NCc2nnc(SCC(=O)Nc3ccccc3C)n2C)cc1
PDGFRR-α and FYN and FLT-3 | COc1ccc(NCc2nnc(SCC(=O)Nc3cccc(C(F)(F)F)c3)n2C)cc1
FYN and PDGFRR-α and FLT-3 | COc1ccc(NCc2nnc(SCC(=O)Nc3ccccc3)n2-c2ccc(C)cc2)cc1
PDGFRR-α | COc1ccc(NCc2nnc(SCC(=O)Nc3ccccc3C(F)(F)F)n2-c2ccccc2)cc1
MAPKAPK-2 | Cc1cc(C)nc(SCc2nnc(SCC(=O)Nc3ccccc3)n2-c2ccccc2)n1
CHEK2 | CCn1c(CNc2ccc(C)cc2)nnc1SCC(=O)Nc1cccc(Cl)c1
DAPK1 | Cc1ccc(NCc2nnc(SCC(=O)N3c4ccccc4Sc4ccccc43)n2C)cc1
AURORA-A | Cc1ccc(NCc2nnc(SCC(=O)Nc3ccc(C)cc3Br)n2-c2ccccc2)cc1
CHEK2 | COc1ccc(-n2c(Cc3ccccc3)nnc2SCC(=O)Nc2ccccc2)cc1
AURORA-A | COc1ccccc1-n1c(SCC(=O)Nc2cccc(C(=O)O)c2)nnc1-c1ccccc1O
PDGFRR-α and AURORA-A and FYN | COc1ccc(NCc2nnc(S)n2-c2cccc(Cl)c2)cc1
GSK3-α and CDK1 | COc1ccc(-n2c(S)nnc2COc2ccc3ccccc3c2)cc1
AKT1 | Cc1ccc(S(=O)(=O)Nc2ccc(-c3nnc(SCC(=O)N4CCCCC4)n3C)cc2)cc1
PDGFRR-α | Cc1ccc(-n2c(C)nnc2SCc2nnc(S)n2-c2ccccc2)cc1
CDK1 | COc1ccc(OCc2nnc(SCC(=O)Nc3ccc(C)cc3Br)n2-c2ccccc2)cc1
FYN and PDGFRR-α and FLT-3 | COc1ccc(NCc2nnc(SCC(=O)Nc3ccc(C)cc3Br)n2C)cc1
PDGFRR-α and FYN and FLT-3 | CCOc1ccc(NCc2nnc(SCC(=O)Nc3ccccc3Br)n2-c2ccccc2)cc1
MSK2 | Cc1cccc(NC(=O)CSc2nnc(-c3ccc(O)cc3)n2-c2ccccc2)c1C
CDK1 | COc1ccc(NC(=O)CSc2nnc(-c3ccccc3O)n2-c2ccccc2)c(OC)c1
FYN | COCCCn1c(SCC(=O)Nc2c(C)cccc2C)nnc1-c1ccncc1

Kinase | SMILES
PDGFRR-α and FYN and FLT-3 | COc1ccc(NCc2nnc(SCC(=O)Nc3cccc(C(C)=O)c3)n2-c2ccc(Cl)cc2)cc1
CHEK2 | COc1ccc(-n2c(CNc3ccccc3Cl)nnc2SCC(=O)Nc2cccc(C(C)=O)c2)cc1
AKT1 | CCn1c(COc2ccccc2)nnc1SCC(=O)Nc1sc2c(c1C#N)CCCC2
GSK3-β; also recorded: GSK3-α | Cc1cc(NC(=O)CSc2nnc(-c3ccc(O)cc3)n2C)ccc1NC(=O)c1ccccc1C
PDGFRR-α and FYN and c-TAK1 | COc1ccc(NCc2nnc(SCC(=O)Nc3ccc(C(C)=O)cc3)n2-c2ccc(OC)cc2)cc1
CDK1 | CCn1c(CNc2cccc(Cl)c2)nnc1SCC(=O)Nc1ccc(C(C)=O)cc1
PDGFRR-α and FLT-3 and FYN | COc1ccc(NCc2nnc(SCC(=O)Nc3ccc(C(C)=O)cc3)n2C)cc1
PDGFRR-α and FYN and AURORA-A | COc1ccc(NCc2nnc(SCC(=O)Nc3ccc(Br)cc3)n2C)cc1
SGK1 | CCC(=O)Nc1cc(NC(=O)CSc2nnc(-c3ccc(O)cc3)n2CC)ccc1C
GSK3-α | Cn1c(SCC(=O)Nc2nc3ccccc3s2)nnc1-c1ccco1
PDGFRR-α and FYN and GSK3-β | CCn1c(CNc2ccc(OC)cc2)nnc1SCC(=O)Nc1ccccc1-c1ccccc1
PDGFRR-α and FYN and CHEK2 | COc1ccc(NCc2nnc(SCC(=O)Nc3cccc(-c4ccccc4)c3)n2C)cc1
SGK1 and CDK1 | O=C(CSc1nnc(COc2cccc3cccnc23)n1-c1ccccc1)Nc1ccccc1
GSK3-α | CCOC(=O)CN(C(=O)CSc1nnc(-c2ccccc2)n1-c1ccccc1OC)c1cccc([N+](=O)[O-])c1
CDK1 | CCOC(=O)CN(C(=O)CSc1nnc(-c2ccncc2)n1CCCN(C)C)c1cccc([N+](=O)[O-])c1
AURORA-A | CCOC(=O)CN(C(=O)CSc1nnc(-c2ccccc2O)n1CCc1ccccc1)c1cccc([N+](=O)[O-])c1
CDK2-cyclinA | CCOC(=O)c1c(NC(=O)CSc2nnc(-c3ccccc3O)n2CCc2ccccc2)sc(C)c1C
GSK3-β; also recorded: GSK3-α | CCOC(=O)c1sc(NC(=O)CSc2nnc(-c3ccc(O)cc3)n2CC2CCCO2)nc1C (stereo not drawn)
CHEK2 | CCOC(=O)c1ccc(NC(=O)CSc2nnc(CNc3ccc(C)cc3)n2CC)cc1
AURORA-A | CCn1c(CNc2cccc(Cl)c2)nnc1SCC(=O)Nc1ccccc1C(=O)OC
PDGFRR-α and AURORA-A and FYN | COC(=O)c1ccccc1NC(=O)CSc1nnc(CNc2ccc(OC)cc2)n1-c1ccc(C)cc1
GSK3-β; also recorded: GSK3-α | COC(=O)c1sc(NC(=O)CSc2nnc(-c3ccco3)n2C)nc1C
AURORA-A | COC(=O)c1ccc(NC(=O)CSc2nnc(-c3ccccc3O)n2-c2ccccc2OC)cc1

SMILES | Kinase
COc1ccc(-n2c(S)nnc2-c2ccc(NS(=O)(=O)c3ccc(C)cc3)cc2)cc1 | GSK3-β; also recorded: GSK3-α; also recorded: AURORA-A
CCOc1ccc2nc(NC(=O)CSc3nnc(-c4ccncc4)n3CCCOC)sc2c1 | GSK3-β; also recorded: PDGFRR-α; also recorded: GSK3-α
CCn1c(SCC(=O)Nc2nc3ccccc3s2)nnc1-c1cccnc1 | GSK3-β; also recorded: GSK3-α; also recorded: CDK2-cyclinE
CCOC(=O)c1c(NC(=O)CSc2nnc(CNc3ccc(OC)cc3)n2C)sc(C)c1C | PDGFRR-α; also recorded: FLT-3; also recorded: AURORA-A
CCOC(=O)c1cccc(NC(=O)CSc2nnc(CNc3ccc(OC)cc3)n2-c2ccc(OC)cc2)c1 | AURORA-A; also recorded: PDGFRR-α; also recorded: CHEK2
CCOC(=O)c1ccc(NC(=O)CSc2nnc(-c3ccc(O)cc3)n2C)cc1 | GSK3-β; also recorded: AURORA-A; also recorded: GSK3-α
